US10577363B2, “Substituted piperidine compounds” (EPIZYME, INC., priority 2014, dated 2020)

Tests used:
SMYD3 [1] = target: T1, SMYD3 (Homo sapiens (Human), UniProt Q9H7B4); experiment: SMYD3 cell assay (Trimethyl-MEKK2 In-Cell Western in 293T/17 cells); assay type: cell-based; conditions: Table 2A; read-out: SMYD3 Cell IC50
Summary of the method: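 In-Cell Western ratio of trimethyl-Lys260 MEKK2 to anti-flag signal; percent inhibition from DMSO and maximum-inhibition controls, IC50 by non-linear regression, triplicates.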

SMYD3 [2] = target: T1, SMYD3; experiment: SMYD3 biochemical assay (SPA, 3H-SAM methylation of MEKK2 protein substrate); conditions: Table 2A; read-out: SMYD3 Biochem IC50
Summary of the method: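 Full-length native human SMYD3 (E. coli-expressed, tags removed) preincubated with compounds 30 min at room temperature, then reaction started with 3H-SAM and GST-tagged MEKK2 protein in 25 mM Tris-Cl pH 8.0, 1 mM TCEP, 0.005% BSG, 0.005% Tween 20. Quenched with unlabelled SAM (100 uM final); 3H-MEKK2 counted by SPA.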

T1 sequence (Q9H7B4 whole entry): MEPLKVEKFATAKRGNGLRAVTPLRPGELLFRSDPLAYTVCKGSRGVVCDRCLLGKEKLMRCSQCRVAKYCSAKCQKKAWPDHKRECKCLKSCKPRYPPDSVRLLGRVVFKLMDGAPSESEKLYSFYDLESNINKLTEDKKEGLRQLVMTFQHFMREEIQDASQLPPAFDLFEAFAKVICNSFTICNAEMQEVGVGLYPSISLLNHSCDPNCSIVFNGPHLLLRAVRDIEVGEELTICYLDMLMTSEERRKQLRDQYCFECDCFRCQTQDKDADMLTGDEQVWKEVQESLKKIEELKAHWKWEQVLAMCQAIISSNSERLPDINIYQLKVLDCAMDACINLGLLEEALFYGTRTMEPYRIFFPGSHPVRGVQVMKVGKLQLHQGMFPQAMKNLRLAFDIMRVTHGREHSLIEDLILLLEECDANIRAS

Row | Structure (SMILES) | IC50 (SMYD3 [1]) [nM] | IC50 (SMYD3 [2]) [nM]
1 | C[C@H]1C[C@@H](NC(=O)c2cc(C3CC3)on2)CCN1S(=O)(=O)N1CC2CCC(C1)N2C [compound 565, 5-cyclopropyl-N-((2S,4S)-2-methyl-1-((8-methyl-3,8-diazabicyclo[3.2.1]octan-3-yl)sulfonyl)piperidin-4-yl)isoxazole-3-carboxamide] | 49.4 | 6
2 | C[C@H]1CN(S(=O)(=O)N2CCC(N)CC2)CC[C@H]1NC(=O)c1cc(C2CC2)on1 [compound 567, N-((3S,4R)-1-((4-aminopiperidin-1-yl)sulfonyl)-3-methylpiperidin-4-yl)-5-cyclopropylisoxazole-3-carboxamide] | 113 | 6.1
3 | O=C(N[C@H]1C[C@H]2CC[C@@H](C1)N2S(=O)(=O)C[C@@H]1CCCNC1)c1cc(C2CC2)on1 [compound 569, 5-cyclopropyl-N-((1R,3R,5S)-8-((((R)-piperidin-3-yl)methyl)sulfonyl)-8-azabicyclo[3.2.1]octan-3-yl)isoxazole-3-carboxamide] | 39.4 | 6.6
4 | C[C@H]1C[C@@H](NC(=O)c2cc(C3CC3)on2)CCN1S(=O)(=O)N1CC2CC1CN2 (stereo partly drawn) [compound 570, N-((2S,4S)-1-((2,5-diazabicyclo[2.2.1]heptan-2-yl)sulfonyl)-2-methylpiperidin-4-yl)-5-cyclopropylisoxazole-3-carboxamide] | 83.9 | 6.7
5 | O=C(N[C@H]1C[C@H]2CC[C@@H](C1)N2S(=O)(=O)N1CC2CC(C1)N2)c1cc(C2CC2)on1 [compound 571, N-((1R,3r,5S)-8-((3,6-diazabicyclo[3.1.1]heptan-3-yl)sulfonyl)-8-azabicyclo[3.2.1]octan-3-yl)-5-cyclopropylisoxazole-3-carboxamide] | 99.2 | 7.5
6 | C[C@@H]1C[C@H](NC(=O)c2cc(C3CC3)on2)CCN1S(=O)(=O)CC1CCN(Cc2ccccc2)CC1 [compound 573, N-((2R,4R)-1-(((1-benzylpiperidin-4-yl)methyl)sulfonyl)-2-methylpiperidin-4-yl)-5-cyclopropylisoxazole-3-carboxamide] | 293 | 8
7 | O=C(N[C@H]1C[C@H]2CC[C@@H](C1)N2S(=O)(=O)C[C@H]1CCCNC1)c1cc(C2CC2)on1 [compound 575, 5-cyclopropyl-N-((1R,3S,5S)-8-((((S)-piperidin-3-yl)methyl)sulfonyl)-8-azabicyclo[3.2.1]octan-3-yl)isoxazole-3-carboxamide] | 67.4 | 8
8 | C[C@H]1C[C@@H](NC(=O)c2cc(C3CC3)on2)CCN1S(=O)(=O)N1CC2CCC1CN2 (stereo partly drawn) [compound 577, N-((2S,4S)-1-((2,5-diazabicyclo[2.2.2]octan-2-yl)sulfonyl)-2-methylpiperidin-4-yl)-5-cyclopropylisoxazole-3-carboxamide] | 134 | 9.2
9 | C[C@@H]1C[C@H](NC(=O)c2cc(C3CC3)on2)CCN1S(=O)(=O)CC1CCN(CCN2CCCCC2)CC1 [compound 579, 5-cyclopropyl-N-((2R,4R)-2-methyl-1-(((1-(2-(piperidin-1-yl)ethyl)piperidin-4-yl)methyl)sulfonyl)piperidin-4-yl)isoxazole-3-carboxamide] | 587 | 9.5
10 | O=C(N[C@H]1C[C@H]2CC[C@@H](C1)N2S(=O)(=O)N1CC2(CNC2)C1)c1cc(C2CC2)on1 [compound 580, N-((1R,3r,5S)-8-((2,6-diazaspiro[3.3]heptan-2-yl)sulfonyl)-8-azabicyclo[3.2.1]octan-3-yl)-5-cyclopropylisoxazole-3-carboxamide] | 88.9 | 9.7
11 | CC(C)NC1CCN(S(=O)(=O)N2CC[C@H](NC(=O)c3cc(C4CC4)on3)C[C@@H]2C)CC1 [compound 581, 5-cyclopropyl-N-((2S,4S)-1-((4-(isopropylamino)piperidin-1-yl)sulfonyl)-2-methylpiperidin-4-yl)isoxazole-3-carboxamide] | 143 | 10.1
12 | CN1C2CC1CN(S(=O)(=O)N1[C@@H]3CC[C@H]1C[C@@H](NC(=O)c1cc(C4CC4)on1)C3)C2 [compound 582, 5-cyclopropyl-N-((1R,3r,5S)-8-((6-methyl-3,6-diazabicyclo[3.1.1]heptan-3-yl)sulfonyl)-8-azabicyclo[3.2.1]octan-3-yl)isoxazole-3-carboxamide] | 151 | 10.1

More lines, now with the values ahead:

Row | IC50 (SMYD3 [1]) [nM] | IC50 (SMYD3 [2]) [nM] | Structure (SMILES)
13 | 322 | 6.1 | C[C@H]1C[C@@H](NC(=O)c2cc(C3CC3)on2)CCN1S(=O)(=O)CCCNCc1ccc(C(F)(F)F)cc1 [compound 566, 5-cyclopropyl-N-((2S,4S)-2-methyl-1-((3-((4-(trifluoromethyl)benzyl)amino)propyl)sulfonyl)piperidin-4-yl)isoxazole-3-carboxamide]
14 | 156 | 6.3 | C[C@@H]1C[C@H](NC(=O)c2cc(C3CC3)on2)CCN1S(=O)(=O)CC1CCN(C)CC1 [compound 568, 5-cyclopropyl-N-((2R,4R)-2-methyl-1-(((1-methylpiperidin-4-yl)methyl)sulfonyl)piperidin-4-yl)isoxazole-3-carboxamide]
15 | 53.6 | 7.8 | C[C@H]1CN(S(=O)(=O)N2CC[C@H](NC(=O)c3cc(C4CC4)on3)C[C@@H]2C)CCN1 [compound 572, 5-cyclopropyl-N-((2S,4S)-2-methyl-1-(((S)-3-methylpiperazin-1-yl)sulfonyl)piperidin-4-yl)isoxazole-3-carboxamide]
16 | 105 | 8 | C[C@H]1C[C@@H](NC(=O)c2cc(C3CC3)on2)CCN1S(=O)(=O)C1CCN(C)CC1 [compound 574, 5-cyclopropyl-N-((2S,4S)-2-methyl-1-((1-methylpiperidin-4-yl)sulfonyl)piperidin-4-yl)isoxazole-3-carboxamide]
17 | 106 | 8.1 | C[C@H]1C[C@@H](NC(=O)c2cc(C3CC3)on2)CCN1S(=O)(=O)CCCCN(C)C [compound 576, 5-cyclopropyl-N-((2S,4S)-1-((4-(dimethylamino)butyl)sulfonyl)-2-methylpiperidin-4-yl)isoxazole-3-carboxamide]
18 | 289 | 9.4 | C[C@H]1C[C@@H](NC(=O)c2cc(C3CC3)on2)CCN1S(=O)(=O)CCCNCc1ccc2ccccc2c1 [compound 578, 5-cyclopropyl-N-((2S,4S)-2-methyl-1-((3-((naphthalen-2-ylmethyl)amino)propyl)sulfonyl)piperidin-4-yl)isoxazole-3-carboxamide]
19 | 234 | 10.4 | COCCN1CCC(CS(=O)(=O)N2CC[C@@H](NC(=O)c3cc(C4CC4)on3)C[C@H]2C)CC1 [compound 583, 5-cyclopropyl-N-((2R,4R)-1-(((1-(2-methoxyethyl)piperidin-4-yl)methyl)sulfonyl)-2-methylpiperidin-4-yl)isoxazole-3-carboxamide]
20 | 159 | 10.5 | CC[C@H]1CN(S(=O)(=O)N2CC[C@H](NC(=O)c3cc(C4CC4)on3)C[C@@H]2C)CCN1 [compound 584, 5-cyclopropyl-N-((2S,4S)-1-(((S)-3-ethylpiperazin-1-yl)sulfonyl)-2-methylpiperidin-4-yl)isoxazole-3-carboxamide]
21 | 186 | 10.6 | C[C@H]1C[C@@H](NC(=O)c2cc(C3CC3)on2)CCN1S(=O)(=O)N1CCCNCC1 [compound 585, N-((2S,4S)-1-((1,4-diazepan-1-yl)sulfonyl)-2-methylpiperidin-4-yl)-5-cyclopropylisoxazole-3-carboxamide]
